Test results as given in patent US5593984A, “Cephalosporin derivatives” (Yuhan Corporation, priority 1992, dated 1997).
In brackets after ≈: the same amount, converted by molar mass.

Key:
Type in all cases: cell-based
P. vulgaris NCTC 8313 = experiment: MIC by agar dilution, P. vulgaris NCTC 8313; details: Proteus vulgaris, NCTC8313, 17 h; P. vulgaris NCTC 8313; agar dilution, Mueller-Hinton agar; read-out: Minimal Inhibitory Concentration (MIC)
In short: (§1)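 Agar dilution in Mueller-Hinton agar with two-fold compound dilutions. Each strain is inoculated at 10^6 CFU per ml and incubated at 35°-37° C. for 17±1 hours. Ceftazidime and cefotaxime serve as controls.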

Staph. aureus C-57 = experiment: MIC by agar dilution, Staph. aureus C-57; details: Staphylococcus aureus, C57, 17 h, Mueller-Hinton agar, read-out: Minimal Inhibitory Concentration (MIC)
In short: as §1

M. morganii DY-1 = experiment: MIC by agar dilution, M. morganii DY-1; details: Morganella morganii, DY1, 17 h; M. morganii DY-1; agar dilution, Mueller-Hinton agar; read-out: Minimal Inhibitory Concentration (MIC)
In short: as §1

Staph. aureus Smith = experiment: MIC by agar dilution, Staph. aureus Smith; details: Staphylococcus aureus, 17 h, Mueller-Hinton agar, read-out: Minimal Inhibitory Concentration (MIC)
In short: as §1

[1] = test system: S. epidermidis ATCC 12228; experiment: MIC by agar dilution, S. epidermidis ATCC 12228; details: Staphylococcus epidermidis, ATCC12228, 17 h; S. epidermidis ATCC 12228; agar dilution, Mueller-Hinton agar; read-out: Minimal Inhibitory Concentration (MIC)
In short: as §1

B. subtilis ATCC 6633 = experiment: MIC by agar dilution, B. subtilis ATCC 6633; details: Bacillus subtilis, ATCC6633, 17 h; B. subtilis ATCC 6633; agar dilution, Mueller-Hinton agar; read-out: Minimal Inhibitory Concentration (MIC)
In short: as §1

E. coli DY-1 = experiment: MIC by agar dilution, E. coli DY-1; details: Escherichia coli, DY1, 17 h; E. coli DY-1; agar dilution, Mueller-Hinton agar; read-out: Minimal Inhibitory Concentration (MIC)
In short: as §1

Ent. aerogenes IFO 12979 = experiment: MIC by agar dilution, Ent. aerogenes IFO 12979; details: Klebsiella aerogenes, IFO12979, 17 h, Mueller-Hinton agar, read-out: Minimal Inhibitory Concentration (MIC)
In short: as §1

Ent. cloacae IFO 13535 = experiment: MIC by agar dilution, Ent. cloacae IFO 13535; details: Enterobacter cloacae, IFO13535, 17 h; Ent. cloacae IFO 13535; agar dilution, Mueller-Hinton agar; read-out: Minimal Inhibitory Concentration (MIC)
In short: as §1

E. coli No. 29 = experiment: MIC by agar dilution, E. coli No. 29; details: Escherichia coli, 17 h; E. coli No. 29; agar dilution, Mueller-Hinton agar; read-out: Minimal Inhibitory Concentration (MIC)
In short: as §1

Staph. aureus ATCC 6538P = experiment: MIC by agar dilution, Staph. aureus ATCC 6538P; details: Staphylococcus aureus, ATCC6538P, 17 h; Staph. aureus ATCC 6538P; agar dilution, Mueller-Hinton agar; read-out: Minimal Inhibitory Concentration (MIC)
In short: as §1

Prov. stuartii IFO 12930 = experiment: MIC by agar dilution, Prov. stuartii IFO 12930; details: Providencia stuartii, IFO12930, 17 h, Mueller-Hinton agar, read-out: Minimal Inhibitory Concentration (MIC)
In short: as §1

K. pneumoniae NCTC 9632 = experiment: MIC by agar dilution, K. pneumoniae NCTC 9632; details: Klebsiella pneumoniae, NCTC9632, 17 h; K. pneumoniae NCTC 9632; agar dilution, Mueller-Hinton agar; read-out: Minimal Inhibitory Concentration (MIC)
In short: as §1

Staph. aureus C-5216 = experiment: MIC by agar dilution, Staph. aureus C-5216; details: Staphylococcus aureus, C5216, 17 h, Mueller-Hinton agar, read-out: Minimal Inhibitory Concentration (MIC)
In short: as §1

[2] = test system: Ps. aeruginosa NCTC 10490; experiment: MIC by agar dilution, Ps. aeruginosa NCTC 10490; details: Pseudomonas aeruginosa, NCTC10490, 17 h, Mueller-Hinton agar, read-out: Minimal Inhibitory Concentration (MIC)
In short: as §1

E. coli NIHJ JC-2 = experiment: MIC by agar dilution, E. coli NIHJ JC-2; details: Escherichia coli, NIHJJC2, 17 h; E. coli NIHJ JC-2; agar dilution, Mueller-Hinton agar; read-out: Minimal Inhibitory Concentration (MIC)
In short: as §1

[3] = test system: Ps. aeruginosa ATCC 10145; experiment: MIC by agar dilution, Ps. aeruginosa ATCC 10145; details: Pseudomonas aeruginosa, ATCC10145, 17 h, Mueller-Hinton agar, read-out: Minimal Inhibitory Concentration (MIC)
In short: as §1

Staph. aureus C-5113 = experiment: MIC by agar dilution, Staph. aureus C-5113; details: Staphylococcus aureus, C5113, 17 h, Mueller-Hinton agar, read-out: Minimal Inhibitory Concentration (MIC)
In short: as §1

Ps. aeruginosa DY-2 = experiment: MIC by agar dilution, Ps. aeruginosa DY-2; details: Pseudomonas aeruginosa, DY2, 17 h; Ps. aeruginosa DY-2; agar dilution, Mueller-Hinton agar; read-out: Minimal Inhibitory Concentration (MIC)
In short: as §1

[4] = test system: Ser. marcescens IFO 12648; experiment: MIC by agar dilution, Ser. marcescens IFO 12648; details: Serratia marcescens, IFO12648, 17 h; Ser. marcescens IFO 12648; agar dilution, Mueller-Hinton agar; read-out: Minimal Inhibitory Concentration (MIC)
In short: as §1

## CO/N=C(\C(=O)N[C@@H]1C(=O)N2C(C(=O)[O-])=C(C[n+]3ccn4ccc(CO)c4c3)CS[C@H]12)c1nc(N)sc1Cl [Ex. 54, 7-β-[(Z)-2-(2-amino-5-chlorothiazol-4-yl)-2-methoxyiminoacetamido]-3-(8-hydroxymethylpyrrolo[1,2-a]-pyrazinium-2-yl)methyl-3-cephem-4-carboxylate]
P. vulgaris NCTC 8313
  MIC: 0.05 µg/mL (≈ 0.0865 µM)
Staph. aureus C-57
  MIC: 6.25 µg/mL (≈ 10.8 µM)
M. morganii DY-1
  MIC: 0.1 µg/mL (≈ 0.173 µM)
Staph. aureus Smith
  MIC: 0.78 µg/mL (≈ 1.35 µM)
[1]
  MIC: 0.05 µg/mL (≈ 0.0865 µM)
B. subtilis ATCC 6633
  MIC: 0.2 µg/mL (≈ 0.346 µM)
E. coli DY-1
  MIC: 0.025 µg/mL (≈ 0.0433 µM)
Ent. aerogenes IFO 12979
  MIC: 0.1 µg/mL (≈ 0.173 µM)
Ent. cloacae IFO 13535
  MIC: 0.78 µg/mL (≈ 1.35 µM)
E. coli No. 29
  MIC: 0.05 µg/mL (≈ 0.0865 µM)
Staph. aureus ATCC 6538P
  MIC: 0.39 µg/mL (≈ 0.675 µM)
Prov. stuartii IFO 12930
  MIC: 0.025 µg/mL (≈ 0.0433 µM)
K. pneumoniae NCTC 9632
  MIC: 0.78 µg/mL (≈ 1.35 µM)
Staph. aureus C-5216
  MIC: 1.56 µg/mL (≈ 2.7 µM)
[2]
  MIC: 0.78 µg/mL (≈ 1.35 µM)
E. coli NIHJ JC-2
  MIC: 0.39 µg/mL (≈ 0.675 µM)
[3]
  MIC: 3.13 µg/mL (≈ 5.41 µM)
Staph. aureus C-5113
  MIC: 0.78 µg/mL (≈ 1.35 µM)
Ps. aeruginosa DY-2
  MIC: 12.5 µg/mL (≈ 21.6 µM)
[4]
  MIC: 0.39 µg/mL (≈ 0.675 µM)

## CO/N=C(\C(=O)N[C@@H]1C(=O)N2C(C(=O)[O-])=C(C[n+]3ccn4ccc(CO)c4c3)CS[C@H]12)c1nsc(N)n1 [Ex. 55, 7-β-[(Z)-2-(5-amino-1,2,4-thiadiazol-3-yl)-2-methoxyiminoacetamido]-3-(8-hydroxymethylpyrrolo[1,2-a]-pyrazinium-2-yl)methyl-3-cephem-4-carboxylate]
P. vulgaris NCTC 8313
  MIC: 0.05 µg/mL (≈ 0.0918 µM)
Staph. aureus C-57
  MIC: 25 µg/mL (≈ 45.9 µM)
M. morganii DY-1
  MIC: 0.025 µg/mL (≈ 0.0459 µM)
Staph. aureus Smith
  MIC: 1.56 µg/mL (≈ 2.86 µM)
[1]
  MIC: 0.2 µg/mL (≈ 0.367 µM)
B. subtilis ATCC 6633
  MIC: 0.1 µg/mL (≈ 0.184 µM)
E. coli DY-1
  MIC: 0.012 µg/mL (≈ 0.022 µM)
Ent. aerogenes IFO 12979
  MIC: 0.025 µg/mL (≈ 0.0459 µM)
Ent. cloacae IFO 13535
  MIC: 0.1 µg/mL (≈ 0.184 µM)
E. coli No. 29
  MIC: ≤ 0.006 µg/mL
Staph. aureus ATCC 6538P
  MIC: 0.78 µg/mL (≈ 1.43 µM)
Prov. stuartii IFO 12930
  MIC: ≤ 0.006 µg/mL
K. pneumoniae NCTC 9632
  MIC: 0.025 µg/mL (≈ 0.0459 µM)
Staph. aureus C-5216
  MIC: 3.13 µg/mL (≈ 5.75 µM)
[2]
  MIC: 0.1 µg/mL (≈ 0.184 µM)
E. coli NIHJ JC-2
  MIC: 0.012 µg/mL (≈ 0.022 µM)
[3]
  MIC: 0.78 µg/mL (≈ 1.43 µM)
Staph. aureus C-5113
  MIC: 6.25 µg/mL (≈ 11.5 µM)
Ps. aeruginosa DY-2
  MIC: 1.56 µg/mL (≈ 2.86 µM)
[4]
  MIC: 0.025 µg/mL (≈ 0.0459 µM)

## CO/N=C(\C(=O)N[C@@H]1C(=O)N2C(C(=O)[O-])=C(C[n+]3ccn4cccc4c3C)CS[C@H]12)c1nc(N)sc1Cl [Ex. 56, 7-β-[(Z)-2-(2-amino-5-chlorothiazol-4-yl)-2-methoxyiminoacetamido]-3-(1-methylpyrrolo[1,2-a]-pyrazinium-2-yl)methyl-3-cephem-4-carboxylate]
P. vulgaris NCTC 8313
  MIC: 0.012 µg/mL (≈ 0.0214 µM)
Staph. aureus C-57
  MIC: 3.13 µg/mL (≈ 5.57 µM)
M. morganii DY-1
  MIC: 0.39 µg/mL (≈ 0.694 µM)
Staph. aureus Smith
  MIC: 0.39 µg/mL (≈ 0.694 µM)
[1]
  MIC: 0.1 µg/mL (≈ 0.178 µM)
B. subtilis ATCC 6633
  MIC: 0.2 µg/mL (≈ 0.356 µM)
E. coli DY-1
  MIC: 0.05 µg/mL (≈ 0.089 µM)
Ent. aerogenes IFO 12979
  MIC: 0.1 µg/mL (≈ 0.178 µM)
Ent. cloacae IFO 13535
  MIC: 0.78 µg/mL (≈ 1.39 µM)
E. coli No. 29
  MIC: 0.05 µg/mL (≈ 0.089 µM)
Staph. aureus ATCC 6538P
  MIC: 0.05 µg/mL (≈ 0.089 µM)
Prov. stuartii IFO 12930
  MIC: 0.012 µg/mL (≈ 0.0214 µM)
K. pneumoniae NCTC 9632
  MIC: 0.1 µg/mL (≈ 0.178 µM)
Staph. aureus C-5216
  MIC: 0.78 µg/mL (≈ 1.39 µM)
[2]
  MIC: 0.78 µg/mL (≈ 1.39 µM)
E. coli NIHJ JC-2
  MIC: 0.2 µg/mL (≈ 0.356 µM)
[3]
  MIC: 1.56 µg/mL (≈ 2.78 µM)
Staph. aureus C-5113
  MIC: 0.78 µg/mL (≈ 1.39 µM)
Ps. aeruginosa DY-2
  MIC: 3.13 µg/mL (≈ 5.57 µM)
[4]
  MIC: 0.2 µg/mL (≈ 0.356 µM)

## CO/N=C(\C(=O)N[C@@H]1C(=O)N2C(C(=O)[O-])=C(C[n+]3ccn4cccc4c3C)CS[C@H]12)c1nsc(N)n1 [Ex. 57, 7-β-[(Z)-2-(5-amino-1,2,4-thiadiazol-3-yl)-2-methoxyiminoacetamido]-3-(1-methylpyrrolo[1,2-a]-pyrazinium-2-yl)methyl-3-cephem-4-carboxylate]
P. vulgaris NCTC 8313
  MIC: 0.05 µg/mL (≈ 0.0946 µM)
Staph. aureus C-57
  MIC: 1.56 µg/mL (≈ 2.95 µM)
M. morganii DY-1
  MIC: 0.05 µg/mL (≈ 0.0946 µM)
Staph. aureus Smith
  MIC: 0.78 µg/mL (≈ 1.48 µM)
[1]
  MIC: 0.05 µg/mL (≈ 0.0946 µM)
B. subtilis ATCC 6633
  MIC: 0.2 µg/mL (≈ 0.378 µM)
E. coli DY-1
  MIC: 0.025 µg/mL (≈ 0.0473 µM)
Ent. aerogenes IFO 12979
  MIC: 0.025 µg/mL (≈ 0.0473 µM)
Ent. cloacae IFO 13535
  MIC: 0.1 µg/mL (≈ 0.189 µM)
E. coli No. 29
  MIC: 0.025 µg/mL (≈ 0.0473 µM)
Staph. aureus ATCC 6538P
  MIC: 0.1 µg/mL (≈ 0.189 µM)
Prov. stuartii IFO 12930
  MIC: 0.012 µg/mL (≈ 0.0227 µM)
K. pneumoniae NCTC 9632
  MIC: 0.012 µg/mL (≈ 0.0227 µM)
Staph. aureus C-5216
  MIC: 0.39 µg/mL (≈ 0.738 µM)
[2]
  MIC: 0.2 µg/mL (≈ 0.378 µM)
E. coli NIHJ JC-2
  MIC: 0.012 µg/mL (≈ 0.0227 µM)
[3]
  MIC: 0.78 µg/mL (≈ 1.48 µM)
Staph. aureus C-5113
  MIC: 0.2 µg/mL (≈ 0.378 µM)
Ps. aeruginosa DY-2
  MIC: 1.56 µg/mL (≈ 2.95 µM)
[4]
  MIC: 0.025 µg/mL (≈ 0.0473 µM)
